Results reported in patent US11420947B2, “(S)-n-hydroxy-2-(2-(4-methoxyphenyl)butanamido)thiazole-5-carboxamide and pharmaceutically acceptable salts thereof” (TRANSLATIONAL DRUG DEVELOPMENT, LLC, priority 2018, dated 2022).

Tests used:
BIN-67 = experiment: CellTiter-Glo cell viability assay; type: cell-based, Human; conditions: BIN-67, OVARIAN, Human Small Cell Carcinoma of the Ovary, 72 hours
Description: (§1) Cell viability in the presence of varying concentrations of the above listed compounds at different time points was used to assess cytotoxicity and the effect of the compounds on cell proliferation.
(§2) Cell viability was measured by the CellTiter-Glo® cell viability assay from Promega (Madison, Wis.). The CellTiter-Glo® Luminescent Cell Viability Assay is a homogeneous method to determine the number of viable cells in culture based on quantitation of the ATP present, which signals the presence of metabolically active cells. Following treatment, CellTiter-Glo® is added to treatment wells and incubated at 37° C. luminescence values were measured at using a Molecular Devices Spectramax microplate reader
(§3) Cells were grown to 70% confluency, trypsinized, counted, and seeded in 96 well flat-bottom plates at a final concentration of 2.5×10^3-5×10^3 cells/well (Day 0). Cells were allowed to incubate in growth media for 24 hours. Treatment with the test agents or standard agents began on Day 1 and continued for 72 hours. At the 72-hour timepoint, treatment containing media was removed. Viable cell numbers are quantified by the CellTiter-Glo® cell viability assay as described above. Results from these studies were used to calculate an IC50 value (concentration of drug that inhibits cell growth by 50 percent of control) for each compound.
(§4) For single agent and combination studies, data from each experiment was collected and expressed as % Cell Growth using the following calculation: % Cell Growth=(ftest/fvehicle)×100
(§5) Where test is the fluorescence of the tested sample, and fvehicle is the fluorescence of the vehicle in which the drug is dissolved. Dose response graphs and IC50 values were generated using Prism 6 software (GraphPad) using the following equation: Y=(Top-Bottom)/(1+10^((logIC^50^-X)-HillSlope))

A2780cp = experiment: CellTiter-Glo cell viability assay; type: cell-based, Human; conditions: A2780C/P; A2780cp, OVARIAN, Platinum res-Human Ovarian, 72 hours
Description: as §1, §2, §3, §4, §5

OVCAR-3 = experiment: CellTiter-Glo cell viability assay; type: cell-based, Human; conditions: OVCAR-3, OVARIAN, Human Ovarian Carcinoma, 72 hours
Description: as §1, §2, §3, §4, §5

SCCOHT-1 = experiment: CellTiter-Glo cell viability assay; type: cell-based, Human; conditions: SCCOHT-1, OVARIAN, Human Small Cell Carcinoma of the Ovary, 72 hours
Description: as §1, §2, §3, §4, §5

COV434 = experiment: CellTiter-Glo cell viability assay; type: cell-based, Human; conditions: COV434, OVARIAN, Human Ovarian Granulosa, 72 hours
Description: as §1, §2, §3, §4, §5

IGROV-1 = experiment: CellTiter-Glo cell viability assay; type: cell-based, Human; conditions: IGROV-1, OVARIAN, Human Ovarian Adenocarcinoma, 72 hours
Description: as §1, §2, §3, §4, §5

A2780 = experiment: CellTiter-Glo cell viability assay; type: cell-based, Human; conditions: A2780, OVARIAN, Human Ovarian, 72 hours
Description: as §1, §2, §3, §4, §5

OVCAR-8 = experiment: CellTiter-Glo cell viability assay; type: cell-based, Human; conditions: OVCAR-8, OVARIAN, Human Ovarian Carcinoma, 72 hours
Description: as §1, §2, §3, §4, §5

SKOV-3 = experiment: CellTiter-Glo cell viability assay; type: cell-based, Human; conditions: SK-OV-3; SKOV-3, OVARIAN, Human Ovarian Carcinoma, 72 hours
Description: as §1, §2, §3, §4, §5

[1] = Pharmacokinetics studies in mice; type: in vivo; conditions: PO-5 mg/kg
Description: Volume of distribution is one of the most important pharmacokinetic properties of a drug candidate and for an anticancer drug can result in increased drug distribution to the tumor.

HepG2 = experiment: CellTiter-Glo cell viability assay; type: cell-based; conditions: Homo sapiens; HepG2, LIVER, HCC, 72 hours
Description: as §1, §2, §3, §4, §5

MeWo = experiment: CellTiter-Glo cell viability assay; type: cell-based; conditions: Homo sapiens; MeWo, MELANOMA, LN Met, 72 hours
Description: as §1, §2, §3, §4, §5

Y79 = experiment: CellTiter-Glo cell viability assay; type: cell-based; conditions: Homo sapiens; Y79, RETINOBLASTOMA, Retina, 72 hours
Description: as §1, §2, §3, §4, §5

HCC1806 = experiment: CellTiter-Glo cell viability assay; type: cell-based; conditions: Homo sapiens; HCC1806, BREAST, acantholytic squamous cell carcinoma, 72 hours
Description: as §1, §2, §3, §4, §5

SK-Hep-1 = experiment: CellTiter-Glo cell viability assay; type: cell-based; conditions: Homo sapiens, SK-HEP1; SK-Hep-1, LIVER, HCC, 72 hours
Description: as §1, §2, §3, §4, §5

A498 = experiment: CellTiter-Glo cell viability assay; type: cell-based; conditions: Homo sapiens; A498, RENAL, RCC-VHL mut, 72 hours
Description: as §1, §2, §3, §4, §5

MC38 = experiment: CellTiter-Glo cell viability assay; type: cell-based, Murine; conditions: Mus musculus, MC-38; MC38, MURINE COLON, Colon, 72 hours
Description: as §1, §2, §3, §4, §5

L1210 = experiment: CellTiter-Glo cell viability assay; type: cell-based, Murine; conditions: Mus musculus; L1210, HEMATOPIETIC, Murine Leukemia, 72 hours
Description: as §1, §2, §3, §4, §5

GL261 = experiment: CellTiter-Glo cell viability assay; type: cell-based, Murine; conditions: Mus musculus; GL261, MURINE BRAIN, Murine Glioma, 72 hours
Description: as §1, §2, §3, §4, §5

4T1 = experiment: CellTiter-Glo cell viability assay; type: cell-based, Murine; conditions: Mus musculus; 4T1, BREAST, Murine Breast Tumor, 72 hours
Description: as §1, §2, §3, §4, §5

CT26 = experiment: CellTiter-Glo cell viability assay; type: cell-based, Murine; conditions: Mus musculus; CT26, MURINE COLON, Colon, 72 hours
Description: as §1, §2, §3, §4, §5

Question: Which IC50 (BIN-67) does the source give for `CCC(C(=O)Nc1ncc(C(=O)NO)s1)c1ccc(OC)cc1` (racemic) [#1, N-hydroxy-2-(2-(4-methoxyphenyl)butanamido)thiazole-5-carboxamide] here?
Answer: 68 nM

Question: And the IC50 (A2780cp)?
Answer: 117 nM

Question: What about the IC50 (OVCAR-3) of the same compound?
Answer: 65 nM

Question: What about the IC50 (SCCOHT-1) of the same compound?
Answer: 341 nM

Question: What about the IC50 (COV434) of the same compound?
Answer: 47 nM

Question: And the IC50 (IGROV-1)?
Answer: 78 nM

Question: And the IC50 (A2780)?
Answer: 48 nM

Question: What about the IC50 (OVCAR-8) of the same compound?
Answer: 36 nM

Question: And the IC50 (SKOV-3)?
Answer: 113 nM

Question: And the “AUC % Extrap” value [1]?
Answer: 5.51%

Question: What about the CI/Fobs [1] of the same compound?
Answer: 483.2 mL/min/kg

Question: And the AUC(0-inf) ([1]; mouse, in vivo)?
Answer: 172 ng·h/mL

Question: And the AUC(0-t) ([1]; mouse, in vivo)?
Answer: 163 ng·h/mL

Question: What about the Cmax ([1]; mouse, in vivo) of the same compound?
Answer: 30.8 ng/mL

Question: What about the Tmax ([1]; mouse, in vivo) of the same compound?
Answer: 0.5 h

Question: And the bioavailability ([1]; mouse, in vivo)?
Answer: 14.3%

Question: And the half-life ([1]; mouse, in vivo)?
Answer: 5.44 h

Question: And the Vd/F ([1]; mouse, in vivo, read-out: Vz/Fobs)?
Answer: 228 L/kg

Question: And the IC50 (HepG2)?
Answer: 215 nM

Question: And the IC50 (MeWo)?
Answer: 158 nM

Question: And the IC50 (Y79)?
Answer: 363 nM

Question: And the IC50 (HCC1806)?
Answer: 179 nM

Question: And the IC50 (SK-Hep-1)?
Answer: 374 nM

Question: What about the IC50 (A498) of the same compound?
Answer: 63 nM

Question: What about the IC50 (MC38) of the same compound?
Answer: 128 nM

Question: What about the IC50 (L1210) of the same compound?
Answer: 59 nM

Question: And the IC50 (GL261)?
Answer: 372 nM

Question: And the IC50 (4T1)?
Answer: 36 nM

Question: What about the IC50 (CT26) of the same compound?
Answer: 1320 nM
